# Measured values as given in PubChem BioAssay (NCI).
#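 1) Cells in 96-well plates. 2) Compound, 48 h, 5 concentrations. 3) Linear interpolation between surrounding doses. 4) Unreached endpoint = highest concentration. GI50 = concentration required for 50% inhibition of growth. TGI is the concentration that stops growth completely.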
# Tests used:
# Experiment in all cases: DTP human tumour cell line panel, 48 h
# 786-0 renal = system: 786-0 renal
# A498 renal = system: A498 renal
# A549 NSCLC = system: A549 NSCLC
# ACHN renal = system: ACHN renal
# BT-549 breast = system: BT-549 breast
# CAKI-1 renal = system: CAKI-1 renal
# CCRF-CEM leukemia = system: CCRF-CEM leukemia
# COLO 205 colon = system: COLO 205 colon
# DU-145 prostate = system: DU-145 prostate
# EKVX NSCLC = system: EKVX NSCLC
# HCC-2998 colon = system: HCC-2998 colon
# HCT-116 colon = system: HCT-116 colon
# HCT-15 colon = system: HCT-15 colon
# HL-60(TB) leukemia = system: HL-60(TB) leukemia
# HOP-62 NSCLC = system: HOP-62 NSCLC
# HOP-92 NSCLC = system: HOP-92 NSCLC
# HS 578T breast = system: HS 578T breast
# HT29 colon = system: HT29 colon
# IGROV1 ovarian = system: IGROV1 ovarian
# K-562 leukemia = system: K-562 leukemia
# KM12 colon = system: KM12 colon
# LOX IMVI melanoma = system: LOX IMVI melanoma
# M14 melanoma = system: M14 melanoma
# MALME-3M melanoma = system: MALME-3M melanoma
# MCF7 breast = system: MCF7 breast
# MDA-MB-231 breast = system: MDA-MB-231 breast
# MDA-MB-435 = system: MDA-MB-435
# MOLT-4 leukemia = system: MOLT-4 leukemia
# NCI-H226 lung = system: NCI-H226 lung
# NCI-H23 lung = system: NCI-H23 lung
# NCI-H460 lung = system: NCI-H460 lung
# NCI-H522 lung = system: NCI-H522 lung
# NCI/ADR-RES ovarian = system: NCI/ADR-RES ovarian
# OVCAR-3 ovarian = system: OVCAR-3 ovarian
# OVCAR-4 ovarian = system: OVCAR-4 ovarian
# OVCAR-5 ovarian = system: OVCAR-5 ovarian
# OVCAR-8 ovarian = system: OVCAR-8 ovarian
# PC-3 prostate = system: PC-3 prostate
# RPMI-8226 leukemia = system: RPMI-8226 leukemia
# RXF 393 renal = system: RXF 393 renal
# SF-268 CNS = system: SF-268 CNS
# SF-295 CNS = system: SF-295 CNS
# SF-539 CNS = system: SF-539 CNS
# SK-MEL-2 melanoma = system: SK-MEL-2 melanoma
# SK-MEL-28 melanoma = system: SK-MEL-28 melanoma
# SK-MEL-5 melanoma = system: SK-MEL-5 melanoma
# SK-OV-3 ovarian = system: SK-OV-3 ovarian
# SN12C renal = system: SN12C renal
# SNB-19 CNS = system: SNB-19 CNS
# SNB-75 CNS = system: SNB-75 CNS
# SR leukemia = system: SR leukemia
# SW-620 colon = system: SW-620 colon
# T-47D breast = system: T-47D breast
# TK-10 renal = system: TK-10 renal
# U251 CNS = system: U251 CNS
# UACC-257 melanoma = system: UACC-257 melanoma
# UACC-62 melanoma = system: UACC-62 melanoma
# UO-31 renal = system: UO-31 renal
smiles,measurement,setting,value
Cc1cc2nc(CS)[nH]c2cc1C,GI50,786-0 renal,17.7 µM
same,TGI,786-0 renal,34.3 µM
same,GI50,A498 renal,18.9 µM
same,TGI,A498 renal,> 100 µM
same,GI50,A549 NSCLC,36.8 µM
same,TGI,A549 NSCLC,> 100 µM
same,GI50,ACHN renal,15.4 µM
same,TGI,ACHN renal,30.6 µM
same,GI50,BT-549 breast,24.5 µM
same,TGI,BT-549 breast,66.5 µM
same,GI50,CAKI-1 renal,16.9 µM
same,TGI,CAKI-1 renal,35.9 µM
same,GI50,CCRF-CEM leukemia,5.44 µM
same,TGI,CCRF-CEM leukemia,75.1 µM
same,GI50,COLO 205 colon,23.6 µM
same,TGI,COLO 205 colon,98.5 µM
same,GI50,DU-145 prostate,20.8 µM
same,TGI,DU-145 prostate,48.5 µM
same,GI50,EKVX NSCLC,25.1 µM
same,TGI,EKVX NSCLC,> 100 µM
same,GI50,HCC-2998 colon,22.9 µM
same,TGI,HCC-2998 colon,66.2 µM
same,GI50,HCT-116 colon,14.9 µM
same,TGI,HCT-116 colon,29.4 µM
same,GI50,HCT-15 colon,18.6 µM
same,TGI,HCT-15 colon,43.7 µM
same,GI50,HL-60(TB) leukemia,12.4 µM
same,TGI,HL-60(TB) leukemia,> 100 µM
same,GI50,HOP-62 NSCLC,15.2 µM
same,TGI,HOP-62 NSCLC,30.7 µM
same,GI50,HOP-92 NSCLC,18.8 µM
same,TGI,HOP-92 NSCLC,76.3 µM
same,GI50,HS 578T breast,23.3 µM
same,TGI,HS 578T breast,85.5 µM
same,GI50,HT29 colon,6.39 µM
same,TGI,HT29 colon,22.7 µM
same,GI50,IGROV1 ovarian,16.7 µM
same,TGI,IGROV1 ovarian,34.1 µM
same,GI50,K-562 leukemia,22.4 µM
same,TGI,K-562 leukemia,67.3 µM
same,GI50,KM12 colon,15.8 µM
same,TGI,KM12 colon,32.2 µM
same,GI50,LOX IMVI melanoma,12.7 µM
same,TGI,LOX IMVI melanoma,30.6 µM
same,GI50,M14 melanoma,15.3 µM
same,TGI,M14 melanoma,36.8 µM
same,GI50,MALME-3M melanoma,13.4 µM
same,TGI,MALME-3M melanoma,32 µM
same,GI50,MCF7 breast,14.7 µM
same,TGI,MCF7 breast,31.2 µM
same,GI50,MDA-MB-231 breast,20.2 µM
same,TGI,MDA-MB-231 breast,50 µM
same,GI50,MDA-MB-435,14.4 µM
same,TGI,MDA-MB-435,28.7 µM
same,GI50,MOLT-4 leukemia,2.85 µM
same,TGI,MOLT-4 leukemia,8.53 µM
same,GI50,NCI-H226 lung,14 µM
same,TGI,NCI-H226 lung,28.7 µM
same,GI50,NCI-H23 lung,28.8 µM
same,TGI,NCI-H23 lung,> 100 µM
same,GI50,NCI-H460 lung,18.7 µM
same,TGI,NCI-H460 lung,54.6 µM
same,GI50,NCI-H522 lung,3.48 µM
same,TGI,NCI-H522 lung,19.4 µM
same,GI50,NCI/ADR-RES ovarian,22.8 µM
same,TGI,NCI/ADR-RES ovarian,95.4 µM
same,GI50,OVCAR-3 ovarian,14.4 µM
same,TGI,OVCAR-3 ovarian,27.9 µM
same,GI50,OVCAR-4 ovarian,13.1 µM
same,TGI,OVCAR-4 ovarian,32 µM
same,GI50,OVCAR-5 ovarian,21.4 µM
same,TGI,OVCAR-5 ovarian,43.5 µM
same,GI50,OVCAR-8 ovarian,20.2 µM
same,TGI,OVCAR-8 ovarian,50.6 µM
same,GI50,PC-3 prostate,16.1 µM
same,TGI,PC-3 prostate,46.4 µM
same,GI50,RPMI-8226 leukemia,14.3 µM
same,TGI,RPMI-8226 leukemia,40.7 µM
same,GI50,RXF 393 renal,17.5 µM
same,TGI,RXF 393 renal,31.6 µM
same,GI50,SF-268 CNS,20.5 µM
same,TGI,SF-268 CNS,57.5 µM
same,GI50,SF-295 CNS,5.35 µM
same,TGI,SF-295 CNS,25 µM
same,GI50,SF-539 CNS,20.5 µM
same,TGI,SF-539 CNS,45 µM
same,GI50,SK-MEL-2 melanoma,15.7 µM
same,TGI,SK-MEL-2 melanoma,34.7 µM
same,GI50,SK-MEL-28 melanoma,15.5 µM
same,TGI,SK-MEL-28 melanoma,32.2 µM
same,GI50,SK-MEL-5 melanoma,13.7 µM
same,TGI,SK-MEL-5 melanoma,27.2 µM
same,GI50,SK-OV-3 ovarian,37.5 µM
same,TGI,SK-OV-3 ovarian,> 100 µM
same,GI50,SN12C renal,25.1 µM
same,TGI,SN12C renal,71.3 µM
same,GI50,SNB-19 CNS,27.6 µM
same,TGI,SNB-19 CNS,> 100 µM
same,GI50,SNB-75 CNS,14.9 µM
same,TGI,SNB-75 CNS,33.9 µM
same,GI50,SR leukemia,6.69 µM
same,TGI,SR leukemia,37.6 µM
same,GI50,SW-620 colon,13 µM
same,TGI,SW-620 colon,30.9 µM
same,GI50,T-47D breast,15.6 µM
same,TGI,T-47D breast,37.5 µM
same,GI50,TK-10 renal,15 µM
same,TGI,TK-10 renal,29.7 µM
same,GI50,U251 CNS,14 µM
same,TGI,U251 CNS,30 µM
same,GI50,UACC-257 melanoma,20.9 µM
same,TGI,UACC-257 melanoma,54 µM
same,GI50,UACC-62 melanoma,13.6 µM
same,TGI,UACC-62 melanoma,28.2 µM
same,GI50,UO-31 renal,14.2 µM
same,TGI,UO-31 renal,28.1 µM
